Numbering of substitutions follows the chain as printed. Values joined by “and” are separate entries in the source; they are usually repeats but may differ in a detail not shown here. Equal entries are not always repeated. Where two headings read alike, the source gives them in different places.
Legend:
Assay type in all cases: cell-based
hTA1 C5S = biological target: T1, hTA1 C5S (Homo sapiens, UniProt Q96RJ0, C5S); experiment: GloSensor cAMP accumulation assay, C5S mutant; conditions: for C5S - Normalized Luminescence Counts (N=2): log[Compound], single wells
T1 construct: expressed in transfected cells; host or cells: HEK293T
T1 sequence (Q96RJ0 1-339 C5S): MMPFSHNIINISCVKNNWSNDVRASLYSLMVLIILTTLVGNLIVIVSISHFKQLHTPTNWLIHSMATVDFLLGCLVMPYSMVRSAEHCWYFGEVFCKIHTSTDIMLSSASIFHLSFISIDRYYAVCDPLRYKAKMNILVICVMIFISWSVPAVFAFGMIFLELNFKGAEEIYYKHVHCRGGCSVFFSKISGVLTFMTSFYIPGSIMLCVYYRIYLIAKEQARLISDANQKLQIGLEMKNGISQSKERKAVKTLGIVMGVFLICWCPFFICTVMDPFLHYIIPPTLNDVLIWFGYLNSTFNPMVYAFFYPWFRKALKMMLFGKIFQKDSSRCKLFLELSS

hTA1 R83H = biological target: T2, hTA1 R83H (Homo sapiens, UniProt Q96RJ0, R83H); experiment: GloSensor cAMP accumulation assay, R83H mutant;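 further: cells transiently co-expressing hTA1 and a cAMP GloSensor, luminescence read 30 min after agonist addition at room temperature, concentration–response fitted by non-linear regression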
T2 construct: expressed in transfected cells; host or cells: HEK293T
T2 sequence (Q96RJ0 1-339 R83H): T1 sequence (Q96RJ0 1-339 C5S) with S5C, R83H

hTA1 W264F = biological target: T3, hTA1 W264F (Homo sapiens, UniProt Q96RJ0, W264F); experiment: GloSensor cAMP accumulation assay, W264F mutant;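 further: cells transiently transfected with receptor plus GloSensor, luminescence read 30 min after agonist addition at room temperature, concentration-response curves fitted by log(agonist) vs response regression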
T3 construct: expressed in transfected cells; host or cells: HEK293T
T3 sequence (Q96RJ0 1-339 W264F): T1 sequence (Q96RJ0 1-339 C5S) with S5C, W264F

hTA1 C13S = biological target: T4, hTA1 C13S (Homo sapiens, UniProt Q96RJ0, C13S); experiment: GloSensor cAMP accumulation assay, C13S mutant; conditions: for C13S - Normalized Luminescence Counts (N=2): log[Compound], single wells
T4 construct: expressed in transfected cells; host or cells: HEK293T
T4 sequence (Q96RJ0 1-339 C13S): T1 sequence (Q96RJ0 1-339 C5S) with S5C, C13S

[1] = biological target: T5, β2AR-Nterm-hTA1-F112^3.41W (CryoEM Construct) (Homo sapiens, UniProt Q96RJ0, F112W); experiment: GloSensor cAMP accumulation assay, cryoEM construct;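 further: cells transiently co-transfected with the receptor construct and GloSensor cAMP biosensor, luminescence read after 30 min compound exposure at room temperature in the dark as cAMP accumulation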;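 on Normalized Luminescence Counts (N=2): normalized to the maximum response of β-PEA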
T5 construct: FLAG (N); 10xHis (N); TEV protease site (N); expressed in transfected cells; host or cells: HEK293T

hTA1 T271N = biological target: T6, hTA1 T271N (Homo sapiens, UniProt Q96RJ0, T271N); experiment: GloSensor cAMP accumulation assay, T271N mutant
T6 construct: expressed in transfected cells; host or cells: HEK293T
T6 sequence (Q96RJ0 1-339 T271N): T1 sequence (Q96RJ0 1-339 C5S) with S5C, T271N

[2] = W246F mutant (so in the source) minus WT average

T5 sequence (Q96RJ0 with tags, fused parts or gaps F112W): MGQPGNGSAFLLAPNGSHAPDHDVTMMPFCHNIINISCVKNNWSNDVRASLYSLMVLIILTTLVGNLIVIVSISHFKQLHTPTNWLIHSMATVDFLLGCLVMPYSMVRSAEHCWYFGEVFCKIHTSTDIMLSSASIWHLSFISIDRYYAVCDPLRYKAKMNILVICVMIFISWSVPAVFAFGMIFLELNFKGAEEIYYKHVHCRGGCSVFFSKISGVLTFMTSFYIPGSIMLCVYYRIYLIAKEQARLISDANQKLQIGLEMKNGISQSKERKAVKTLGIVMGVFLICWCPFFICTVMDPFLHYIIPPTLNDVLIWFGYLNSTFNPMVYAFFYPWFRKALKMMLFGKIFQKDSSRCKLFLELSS

Compound: CCC(CC1COC(N)=N1)c1ccccc1 (stereo not shown) [Ro5256390]
- EC50 (hTA1 C5S; EC50, C5S, n=2): 9.93 nM
- Emax values, Mean (hTA1 C5S; hTA1 C5S, β-PEA = 100, mean of 3 replicates, one line per independent experiment): 93.1178
- C5S - Normalized Luminescence Counts (N=2) (hTA1 C5S; M = -5): 103.833 and 96.8115 and 93.515 and 109.052 and 73.4937 and 115.059
- C5S - Normalized Luminescence Counts (N=2) (hTA1 C5S; M = -5.522): 100.921 and 96.3599 and 95.6826 and 93.2407 and 55.8872 and 98.4881
- C5S - Normalized Luminescence Counts (N=2) (hTA1 C5S; M = -6): 105.12 and 94.0343 and 79.8326 and 75.5651 and 84.541 and 101.802
- C5S - Normalized Luminescence Counts (N=2) (hTA1 C5S; M = -6.522): 95.389 and 104.217 and 100.289 and 100.214 and 115.957 and 88.6146
- C5S - Normalized Luminescence Counts (N=2) (hTA1 C5S; M = -7): 82.6549 and 83.4903 and 89.3381 and 93.6549 and 93.9311 and 89.0289
- C5S - Normalized Luminescence Counts (N=2) (hTA1 C5S; M = -7.522): 62.4022 and 62.4925 and 74.2106 and 83.9196 and 70.5248 and 74.2532
- C5S - Normalized Luminescence Counts (N=2) (hTA1 C5S; M = -8): 36.7307 and 40.4787 and 36.4823 and 59.3395 and 54.6444 and 53.6087
- C5S - Normalized Luminescence Counts (N=2) (hTA1 C5S; M = -9): 8.372 and 7.4241 and 6.656 and 9.834 and 7.901 and 11.353
- EC50 (hTA1 C5S; pEC50 values, Mean, hTA1 C5S, mean of 3 replicates, one line per independent experiment): 15.2 nM and 6.48 nM
- EC50 (hTA1 C5S; pEC50 ± SEM, C5S, n=2): 10 nM
- Emax (hTA1 C5S; read-out: Emax values, Mean, hTA1 C5S, β-PEA = 100, mean of 3 replicates, one line per independent experiment): 97.6%
- Emax (hTA1 C5S; read-out: Span ± SEM (Emax normalized to β-PEA), C5S, n=2): 95.4 ± 2.26%
- EC50 (hTA1 R83H; EC50, R83H, n=2): 5.19 nM
- ΔEmax values (each mutant value - WT average) (hTA1 R83H; R83H mutant minus WT average): -44.6015
- ΔpEC50 values (each mutant value - WT average) (hTA1 R83H; R83H mutant minus WT average): -0.01027 and 0.0342
- Emax values, Mean (hTA1 R83H; R83H mutant, β-PEA = 100, each line an independent experiment, 3 replicates): 58.7027 and 38.4174
- EC50 (hTA1 R83H; pEC50 values (Mean), R83H mutant, each line an independent experiment, 3 replicates): 5.46 nM and 4.93 nM
- Emax (hTA1 R83H; read-out: Span ± SEM (Emax normalized to β-PEA), R83H, n=2): 48.6 ± 10.1%
- Emax values, Mean (hTA1 W264F): 62.0152 and 91.1137
- EC50 (hTA1 W264F; EC50, W264F, n=2): 127 nM
- ΔEmax values (each mutant value - WT average) (hTA1 W264F; [2]): -41.2891
- ΔpEC50 values (each mutant value - WT average) (hTA1 W264F; [2]): -1.382 and -1.371
- EC50 (hTA1 W264F; W246F mutant (so in the source), each line an independent experiment, 3 replicates, read-out: pEC50 values (Mean) (converted)): 129 nM and 125 nM
- Emax (hTA1 W264F; read-out: Span ± SEM (Emax normalized to β-PEA), W264F, n=2): 76.6 ± 14.5%
- ΔpEC50 values (each mutant value - WT average) (hTA1 C13S; C13S): -0.1093 and -0.3651
- Emax values (hTA1 C13S; C13S, Mean of fit per experiment): 104.119
- EC50 (hTA1 C13S; EC50, C13S, n=2): 9.21 nM
- C13S - Normalized Luminescence Counts (N=2) (hTA1 C13S; M = -5): 108.406 and 95.388 and 120.776 and 112.887 and 109.603 and 114.083
- C13S - Normalized Luminescence Counts (N=2) (hTA1 C13S; M = -5.522): 112.25 and 104.067 and 102.43 and 107.496 and 95.9649 and 109.96
- C13S - Normalized Luminescence Counts (N=2) (hTA1 C13S; M = -6): 90.5159 and 87.1282 and 84.9205 and 101.909 and 92.8231 and 104.73
- C13S - Normalized Luminescence Counts (N=2) (hTA1 C13S; M = -6.522): 96.2254 and 77.4601 and 94.8551 and 102.052 and 85.8613 and 107.282
- EC50 (hTA1 C13S; pEC50 values, Mean, hTA1 C13S, mean of 3 replicates, one line per independent experiment): 6.86 nM and 12.4 nM
- Emax (hTA1 C13S; read-out: Emax values, C13S, Mean of fit per experiment): 96.6%
- Emax (hTA1 C13S; read-out: Span ± SEM (Emax normalized to β-PEA), C13S, n=2): 100 ± 3.73%
- ΔpEC50 values (each mutant value - WT average), Mean ([1]; Cryo EM Construct minus WT average): 0.183 and 0.4564
- Normalized Luminescence Counts (N=2) ([1]; CryoEM Construct, log[Compound], M = -5, single replicates): 109.262 and 115.846 and 129.746 and 127.392
- EC50 ([1]; EC50, CryoEM Construct, n=2): 2.47 nM
- EC50 ([1]; pEC50 values, Mean, Cryo EM Construct, mean of each independent experiment (3 replicates)): 3.5 nM and 1.87 nM
- Emax ([1]; read-out: Span ± SEM (Emax normalized to β-PEA)): 102 ± 2.88%
- EC50 (hTA1 T271N; EC50, T271N, n=2): 12.6 nM
- ΔpEC50 values (each mutant value - WT average), Mean (hTA1 T271N; T271N mutant minus WT average, Figure 5B): -0.2524 and -0.4929
- Emax values, Mean (hTA1 T271N; T271N mutant, Figure 5B, β-PEA = 100, each row one independent experiment (3 replicates)): 121.264 and 99.7038
- EC50 (hTA1 T271N; pEC50 values, Mean, T271N mutant, Figure 5B, each row one independent experiment (3 replicates)): 9.54 nM and 16.6 nM
- Emax (hTA1 T271N; read-out: Span ± SEM (Emax normalized to β-PEA), T271N, n=2): 110%

— paper PMC10762035, “Molecular basis of human trace amine-associated receptor 1 activation” (Nature Communications, 2024)
